Patent US20240400553A1, “AMINE BASED MATRIPTASE 2 INHIBITORS AND USES THEREOF” (Disc Medicine, Inc., priority 2023, published 2024)

Target: T1, Human Recombinant Matriptase 2 (Homo sapiens, UniProt Q8IU80)
T1 construct: made in house
T1 sequence (Q8IU80 1-811): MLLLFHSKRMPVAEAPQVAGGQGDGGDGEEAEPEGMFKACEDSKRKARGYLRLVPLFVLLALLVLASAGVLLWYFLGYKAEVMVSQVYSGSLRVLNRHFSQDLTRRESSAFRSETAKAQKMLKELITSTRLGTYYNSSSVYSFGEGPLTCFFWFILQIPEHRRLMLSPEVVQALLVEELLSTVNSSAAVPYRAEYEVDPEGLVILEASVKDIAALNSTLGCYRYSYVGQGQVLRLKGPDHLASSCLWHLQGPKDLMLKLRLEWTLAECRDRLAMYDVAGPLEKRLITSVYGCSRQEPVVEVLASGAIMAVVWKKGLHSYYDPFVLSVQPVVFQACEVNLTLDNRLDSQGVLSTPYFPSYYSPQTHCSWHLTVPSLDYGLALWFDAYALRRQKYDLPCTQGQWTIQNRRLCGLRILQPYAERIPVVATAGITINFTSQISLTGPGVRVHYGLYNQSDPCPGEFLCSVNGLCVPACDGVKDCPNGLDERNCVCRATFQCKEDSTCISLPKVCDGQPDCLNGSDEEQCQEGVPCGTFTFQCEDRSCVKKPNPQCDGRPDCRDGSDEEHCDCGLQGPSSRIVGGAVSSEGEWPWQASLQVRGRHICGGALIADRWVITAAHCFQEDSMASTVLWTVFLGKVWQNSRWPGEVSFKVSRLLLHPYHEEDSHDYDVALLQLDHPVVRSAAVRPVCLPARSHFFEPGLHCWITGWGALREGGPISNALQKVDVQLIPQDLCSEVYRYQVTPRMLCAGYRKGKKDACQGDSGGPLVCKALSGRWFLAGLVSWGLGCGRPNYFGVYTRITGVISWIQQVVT
Assay: Matriptase 2 inhibition, fluorescence based assay (Method I)
Format: biochemical
Details: Table A; Ki of Matriptase-2 given as class symbols; read-out: Mat-2 Ki
Method in brief: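 In-house recombinant enzyme (3.5 nM), preincubated 30 min with compound, then Boc-Gln-Ala-Arg-AMC substrate (62 μM) in 50 mM Tris pH 7.5, 150 mM NaCl, 0.01% gelatin, 1% DMSO, 25 °C. Fluorescence (Ex 360/Em 480 nm) read 60 min after substrate; IC50 from variable-slope sigmoidal fit of % inhibition.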

Row | SMILES | Ki [µM]
1 | NCc1ccc2cc(C(=O)Nc3nnn[nH]3)n(Cc3cc(NS(=O)(=O)Cc4ccccc4)cc4ccccc34)c2c1 [Compound 372, 6-(aminomethyl)-1-((3-((phenylmethyl)sulfonamido)naphthalen-1-yl)methyl)-N-(1H-tetrazol-5-yl)-1H-indole-2-carboxamide] | 0.1 to 0.5
2 | Cn1ccnc1COC(=O)c1cc2ccc(CN)cc2n1Cc1cc(NS(=O)(=O)Cc2ccsc2)cc2ccccc12 [Compound 381, (1-methyl-1H-imidazol-2-yl)methyl 6-(amino-methyl)-1-({3-[(thio-phen-3-yl)methanesulfon-amido]naphthalen-1-yl}-methyl)-1H-indole-2-carboxylate] | ≤ 0.1
3 | Cn1ccnc1COC(=O)c1cc2ccc(CN)cc2n1Cc1cc(NS(=O)(=O)Cc2ccccc2)cc2ccccc12 [Compound 383, (1-methyl-1H-imidazol-2-yl)methyl 6-(amino-methyl)-1-{[3-(phenyl-methanesulfonamido)-naphthalen-1-yl]meth-yl}-1H-indole-2-carbox-ylate] | ≤ 0.1
4 | CN(C)CCCCOC(=O)c1cc2ccc(CN)cc2n1Cc1cc(NS(=O)(=O)Cc2ccccc2)cc2ccccc12 [Compound 384, 4-(dimethylamino)butyl 6-(aminomethyl)-1-{[3-(phenylmethanesulfon-amido)naphthalen-1-yl]-methyl}-1H-indole-2-carboxylate] | 0.1 to 0.5
5 | CC(C)(C)n1cncc1COC(=O)c1cc2ccc(CN)cc2n1Cc1cc(NS(=O)(=O)Cc2ccsc2)cc2ccccc12 [Compound 385, (1-tert-butyl-1H-imid-azol-5-yl)methyl 6-(aminomethyl)-1-({3-[(thiophen-3-yl)methane-sulfonamido]naphthalen-1-yl}methyl)-1H-indole-2-carboxylate] | 0.1 to 0.5
6 | CC(C)(C)n1cncc1COC(=O)c1cc2ccc(CN)cc2n1Cc1cc(NS(=O)(=O)Cc2ccccc2)cc2ccccc12 [Compound 386, (1-tert-butyl-1H-imid-azol-5-yl)methyl 6-(aminomethyl)-1-{[3-(phenylmethanesulfon-amido)naphthalen-1-yl]-methyl}-1H-indole-2-carboxylate] | 0.1 to 0.5
7 | C[C@@H](c1ccccc1)S(=O)(=O)Nc1cc(Cn2c(C(=O)OCC3CCN(C)CC3)cc3ccc(CN)cc32)c2ccccc2c1 [Compound 387, (1-methylpiperidin-4-yl)-methyl 6-(aminomethyl)-1-({3-[(1S)-1-phenyl-ethanesulfonamido]-naphthalen-1-yl}methyl)-1H-indole-2-carboxylate] | 0.1 to 0.5
8 | COCCN1CCN(CCS(=O)(=O)Nc2cc(Cn3c(C(=O)O)cc4ccc(CN)cc43)c3ccccc3c2)CC1 [Compound 388, 6-(aminomethyl)-1-[(3-{2-[4-(2-methoxyethyl)-piperazin-1-yl]ethanesul-fonamido}naphthalen-1-yl)methyl]-1H-indole-2-carboxylic acid] | 0.1 to 0.5
9 | NCc1ccc2cc(C(=O)O)n(Cc3cc(NS(=O)(=O)CC[C@@H]4CCCN4)cc4ccccc34)c2c1 [Compound 389, 6-(aminomethyl)-1-[(3-{2-[(2S)-pyrrolidin-2-yl]ethanesulfonamido}-naphthalen-1-yl)methyl]-1H-indole-2-carboxylic acid] | 0.1 to 0.5
10 | COCCN1CCC(CS(=O)(=O)Nc2cc(Cn3c(C(=O)O)cc4ccc(CN)cc43)c3ccccc3c2)CC1 [Compound 390, 6-(aminomethyl)-1-[(3-{[1-(2-methoxyethyl)-piperidin-4-yl]methane-sulfonamido}naphthalen-1-yl)methyl]-1H-indole-2-carboxylic acid] | 0.1 to 0.5
11 | NCc1ccc2cc(C(=O)O)n(Cc3cc(NS(=O)(=O)CC4CCC(C(F)(F)F)CC4)cc4ccccc34)c2c1 (stereo not drawn) [Compound 392] | 0.5 to 3

More lines, now with the values ahead:

Row | Ki [µM] | SMILES
12 | ≤ 0.1 | NCc1ccc2cc(-c3nnn[nH]3)n(Cc3cc(NS(=O)(=O)Cc4ccccc4)cc4ccccc34)c2n1 [Compound 366, N-(4-((6-(aminomethyl)-2-(1H-tetrazol-5-yl)-1H-pyrrolo[2,3-b]pyridin-1-yl)methyl)naphthalen-2-yl)-1-phenylmethanesulfonamide]
13 | ≤ 0.1 | NCc1ccc2cc(C(=O)O)n(Cc3cc(NS(=O)(=O)Cc4ccccc4)cc4ccccc34)c2c1 [Compound 370, 6-(aminomethyl)-1-((3-((phenylmethyl)sulfonamido)naphthalen-1-yl)methyl)-1H-indole-2-carboxylic acid]
14 | ≤ 0.1 | CN1CCC(OC(=O)c2cc3ccc(CN)cc3n2Cc2cc(NS(=O)(=O)Cc3ccccc3)cc3ccccc23)CC1 [Compound 371, 1-methylpiperidin-4-yl 6-(aminomethyl)-1-((3-((phenylmethyl)sulfonamido)naphthalen-1-yl)methyl)-1H-indole-2-carboxylate]
15 | ≤ 0.1 | Cc1cccc(C)c1CS(=O)(=O)Nc1cc(Cn2c(C(=O)NCCC3CCN(C)CC3)cc3ccc(CN)cc32)c2ccccc2c1 [Compound 373, 6-(aminomethyl)-1-({3-[(2,6-dimethylphenyl)-methanesulfonamido]-naphthalen-1-yl}methyl)-N-[2-(1-methylpiperidin-4-yl)ethyl]-1H-indole-2-carboxamide]
16 | ≤ 0.1 | CN1CCC(COC(=O)c2cc3ccc(CN)cc3n2Cc2cc(NS(=O)(=O)Cc3ccsc3)cc3ccccc23)CC1 [Compound 374, (1-methylpiperidin-4-yl)-methyl 6-(aminomethyl)-1-({3-[(thiophen-3-yl)-methanesulfonamido]-naphthalen-1-yl}methyl)-1H-indole-2-carboxylate]
17 | ≤ 0.1 | Cc1cccc(C)c1CS(=O)(=O)Nc1cc(Cn2c(C(=O)OCC3CCN(C)CC3)cc3ccc(CN)cc32)c2ccccc2c1 [Compound 375, (1-methylpiperidin-4-yl)-methyl 6-(aminomethyl)-1-({3-[(2,6-dimethyl-phenyl)methanesulfon-amido)naphthalen-1-yl}-methyl)-1H-indole-2-carboxylate]
18 | ≤ 0.1 | CN1CCC(COC(=O)c2cc3ccc(CN)cc3n2Cc2cc(NS(=O)(=O)Cc3ccccc3)cc3ccccc23)CC1 [Compound 376, (1-methylpiperidin-4-yl)-methyl 6-(aminomethyl)-1-1{[3-(phenylmethane-sulfonamido)naphthalen-1-yl]methyl}-1H-indole-2-carboxylate]
19 | ≤ 0.1 | Cc1cccc(C)c1CS(=O)(=O)Nc1cc(Cn2c(C(=O)OCCC3CCN(C)CC3)cc3ccc(CN)cc32)c2ccccc2c1 [Compound 377, 2-(1-methylpiperidin-4-yl)ethyl 6-(aminometh-yl)-1-({3-[(2,6-dimethyl-phenyl)methanesulfon-amido]naphthalen-1-yl}-methyl)-1H-indole-2-carboxylate]
20 | ≤ 0.1 | C[C@H](c1ccccc1)S(=O)(=O)Nc1cc(Cn2c(C(=O)OCC3CCN(C)CC3)cc3ccc(CN)cc32)c2ccccc2c1 [Compound 378, (1-methylpiperidin-4-yl)-methyl 6-(aminomethyl)-1-({3-[(1R)-1-phenyl-ethane-sulfonamido]-naphthalen-1-yl}methyl)-1H-indole-2-carboxylate]
21 | ≤ 0.1 | CN1CCC(COC(=O)c2cc3ccc(CN)cc3n2Cc2cc(NS(=O)(=O)Cc3cccs3)cc3ccccc23)CC1 [Compound 379, (1-methylpiperidin-4-yl)-methyl 6-(aminomethyl)-1-({3-[(thiophen-2-yl)-methanesulfonamido]-naphthalen-1-yl}meth-yl)-1H-indole-2-carbox-ylate]
